Earlier results in US20010026813A1, “Extract from scutellariae radix having neuroprotective effects and pharmaceutical preparations containing the same” (priority 2000, published 2001).
Like-named read-outs stand apart in the source and are kept apart here.

System: 4-VO models

Row | SMILES | defensive level (dose not given) | other results
1 | COC(=O)[C@@H](N)CCCNC(=N)N[N+](=O)[O-] [L-NAME] | 23% | –
2 | CC1=NN=C(c2ccc(N)cc2)c2cc3c(cc2C1)OCO3 [GYK152466] | 11% | –
3 | CCNCc1cc(C(C)(C)C)c(O)c(C(C)(C)C)c1 [LY231617] | 25-30% | –
4 | O=[N+]([O-])c1cccc2c(Br)n[nH]c12 [3-bromo-7-nitroindazole] | 20% | –
5 | O=[N+]([O-])c1cccc2cn[nH]c12 [Example 7-NI] | 17.5% | –
6 | CNC(=O)N1N=C(c2ccc(N)cc2)c2cc3c(cc2CC1C)OCO3 (stereo not drawn) [LY300168] | 23% | –
7 | C[C@]12N[C@H](Cc3ccccc31)c1ccccc12 [MK-801] | – | defensive level (2 mg/kg, i.p.): 24%
8 | NS(=O)(=O)c1cccc2c1c([N+](=O)[O-])cc1nc(O)c(O)nc12 [NBQX] | – | defensive level (30 mg/kg, i.p.): 42%
9 | OC(CN1CCC(Cc2ccc(F)cc2)CC1)c1ccc(Cl)cc1 (stereo not drawn) [eliprodil] | – | defensive level (20 mg/kg, i.p.): 25%
